# Reference: patent publication US20240115572A1, “METHODS FOR TREATING GLIOBLASTOMAS WITH SEPIAPTERIN” (priority 2021, published 2024)
# Tests used:
# [1] = system: Orthotopic glioblastoma tumors, nude (U87) mouse model; experiment: Survival of nude mice with orthotopic U87 glioblastoma tumors, sepiapterin plus radiation; type: in vivo
# Description: Orthotopic glioblastoma tumors were established in nude (U87) and syngeneic (GL261) mouse models on Day 0 (N=13/group). Starting on Day 6 in the U87 mouse model, sepiapterin (SP) was orally administered for either 6 days (10 mg/kg sepiapterin) or daily (1 mg/kg sepiapterin) until end of experiment (60 days). Starting on Day 6 in the GL261 mouse model, SP was orally administered daily (10 mg/kg) until the end of experiment (60 days). Radiation (IR) (5 fxs of 2 Gy) with 3D treatment planning and delivery was started on Day 13, ending on Day 17.
# Orthotopic GL261 tumors = experiment: Survival of mice with orthotopic GL261 tumors, temozolomide with or without sepiapterin; type: in vivo, mouse; details: 10 mg/kg SP orally from day 7 until end of study + 60 mg/kg TMZ for 5 days
# Description: Orthotopic GL261 tumors were established on Day 0. Starting on Day 7 mice were treated with 60 mg/kg temozolomide (TMZ) for 5 days+/−10 mg/kg SP given orally from day 7 until the end of the study. […] Future animal studies will combine with fractionated radiotherapy.
# [2] = system: adult female C57BL/6J mice; experiment: Novel object recognition (NOR) test after brain irradiation; type: in vivo, mouse
# Description: The novel object recognition test is a behavioral test in which a mouse is allowed to explore two similar objects during the first (training) session, and then after a certain length of time, one of the two training objects is replaced by a new object during a later (test) session. Because mice have an innate preference for novelty, if the mouse recognizes the familiar object, it will spend most of its time at the novel object. The amount of time taken to explore the new object provides a measure of recognition memory. 24 adult female C57BL/6J mice were treated as follows: (1) 8 mice were irradiated (IR) with 10 Gy total dose, divided into three fractions with a “rest” day in between fractions, covering about a 1 mm square over the center of the head; (2) 8 mice were similarly irradiated, and also treated with 10 mg/kg/day sepiapterin (SP), administered as oral gavage, starting on day 1 of IR to 6 days beyond last radiation fraction (i.e. 11 days total); (3) 8 mice were untreated naïve. 1 month following treatment, mice were tested in the novel object recognition (NOR) task with an hour inter-trial interval (ITI) to assess hippocampal mediated memory (i.e. the test occurred one hour after training). In both training and test phases, time investigating objects was measured for 5 minutes. Two independent observers were used to evaluate. The Discrimination Index=(novel−familiar)/(novel+familiar).
smiles,measurement,setting,value
"C[C@H](O)C(=O)C1=Nc2c(nc(N)[nH]c2=O)NC1 [sepiapterin, (S)-2-amino-6-(2-hydroxypropanoyl)-7,8-dihydropteridin-4(3H)-one]",Survival vs control group,"[1]; 1 mg/kg oral continuously (daily from Day 6 to day 60) + IR, vs control",significantly different
same,"Survival vs all other groups (Control, IR alone, and 10 mg/kg for 6d)",[1]; 1 mg/kg oral continuously + IR,significantly different from all other groups
same,Survival vs control group,"[1]; 10 mg/kg oral for 6d from Day 6 + IR (5 fxs of 2 Gy, Day 13-17), vs control (no IR or SP)",significantly different
same,Survival vs IR alone group,"[1]; 10 mg/kg oral for 6d from Day 6 + IR, vs IR alone",did not achieve statistical significance
same,Survival vs TMZ alone,Orthotopic GL261 tumors,improved survival
same,Discrimination Index compared with irradiated-only group,"[2]; 10 Gy IR in three fractions + 10 mg/kg/day oral gavage for 11 days, NOR 1 month after treatment, 1 h ITI",increased
same,"NOR Discrimination Index, Mean","[2]; IR 10 Gy + 10 mg/kg/day sepiapterin, N=8, 1 month after treatment, (novel−familiar)/(novel+familiar)",0.262
same,"Diff of Means of Discrimination Index, IR + drug vs. IR","[2]; Tukey test, P 0.331, P < 0.050: No",0.135
same,"Diff of Means of Discrimination Index, Naïve vs. IR + drug","[2]; Tukey test, P 0.475, P < 0.050: No",0.110
